System: selectively-bred alcohol preferring rats
Assay: Alcohol Preferring Rats In Vivo Model (two-bottle choice)
Design: species or system rat
Conditions: for 6 hr Preference (alcohol preference) / 6 hr Ethanol (alcohol intake) / 24 hr Ethanol (alcohol intake) / 24 hr Preference (alcohol preference): mean ± SEM; for 6 hr Ethanol (alcohol intake): 6 h after treatment
Procedure: Adult male selectively-bred alcohol preferring rats (which are known in the art to be useful for the study of the effect of test compounds on voluntary alcohol intake) were grouped into three groups: vehicle and Compound #1 (50 and 100 mg/kg, p.o.). Rats were housed individually in wire mesh cages under a constant room temperature of 22±1° C. and 12:12 light-dark cycle (8:00-20:00, dark). The animals were fed Agway Prolab Rat/Mouse/Hamster 3000 formula and water ad libitum.
Alcohol intake was determined using the standard two-bottle choice method. Animals were first given free access to water in a graduated Richter tube for 2 days. Then they were given access to only a solution of 10% (v/v) ethanol for 3 consecutive days. During this period animals became accustomed to drinking from Richter tubes and to the taste and pharmacological effects of alcohol. Thereafter, they were given free access to both water and a solution of 10% alcohol for at least 4 consecutive weeks and throughout the study period. Rats had free access to food. Water and alcohol intake were recorded at 4, 6 and 24 hours after the treatment, whereas food intake was measured at 24 hour. Animals' body weight was measured every day.
After establishment of a stable baseline for alcohol, food, and water intake, rats were administered either vehicle or Compound #1 via oral gavage using a cross-over design with random assignment. To be able to compare the efficacy of these compounds on alcohol intake with an established FDA-approved drug, naltrexone, was included as a positive control. Same rats were given an oral dose of naltrexone (20 mg/kg). The interval between treatments was at least 3 days. Alcohol and water intake were recorded 4, 6 and 24 h after the drug administration and food intake was recorded at 24 hr. A total of 8-10 animals per group were used.
The results below are presented as means±SEM. Alcohol intake (g/kg) was calculated by multiplying the volume of alcohol consumed in ml by 10% and 0.7893 (ethanol density)/body weight in kg. Alcohol preference, expressed as percentage, was calculated as follows: (volume of alcohol consumed in ml/total fluid intake in ml)×100 (Rezvani and Grady, 1994; Rezvani et al., 1997). Statistical differences between drug-treated and control groups were determined by using ANOVA and Tukey Student's t test for multiple comparison.

Structure (SMILES) | 6 hr Preference (alcohol preference) (50 mg/kg p.o.) [%] | 6 hr Ethanol (alcohol intake) (50 mg/kg p.o.) [g/kg] | 24 hr Ethanol (alcohol intake) (50 mg/kg p.o.) [g/kg] | 24 hr Preference (alcohol preference) (50 mg/kg p.o.) [%] | 6 hr Preference (alcohol preference) (100 mg/kg p.o.) [%] | 6 hr Ethanol (alcohol intake) (100 mg/kg p.o.) [g/kg] | 24 hr Ethanol (alcohol intake) (100 mg/kg p.o.) [g/kg] | 24 hr Preference (alcohol preference) (100 mg/kg p.o.) [%] | duration of reduction in ethanol consumption compared with naltrexone (in words) (100 mg/kg vs naltrexone 20 mg/kg) | effect on ethanol consumption (in words) (at 6 h (50 and 100 mg/kg; p<0.05) and 24 h (100 mg/kg; p<0.05) post-dosing) | 6 hr Preference (alcohol preference) (naltrexone 20 mg/kg oral) [%] | 6 hr Ethanol (alcohol intake) (naltrexone 20 mg/kg oral) [g/kg] | 24 hr Ethanol (alcohol intake) (naltrexone 20 mg/kg oral) [g/kg] | 24 hr Preference (alcohol preference) (naltrexone 20 mg/kg oral) [%]
NS(=O)(=O)NCc1csc2ccccc12 [Compound #1, N-(benzo[b]thien-3-ylmethyl)-sulfamide] | 71 ± 11 | 1.06 ± 0.25 | 4.48 ± 0.62 | 74 ± 9 | 67 ± 11 | 0.79 ± 0.24 | 4.08 ± 0.71 | 79 ± 9 | longer lasting than naltrexone | decreased ethanol consumption | – | – | – | –
O=C1CC[C@@]2(O)[C@H]3Cc4ccc(O)c5c4[C@@]2(CCN3CC2CC2)[C@H]1O5 [Naltrexone, naltrexone, reference compound] | – | – | – | – | – | – | – | – | – | – | 64 ± 12 | 0.77 ± 0.24 | 4.48 ± 0.57 | 76 ± 9

Reference: US20070191453A1, “USE OF BENZO-HETEROARYL SULFAMIDE DERIVATIVES FOR THE TREATMENT OF SUBSTANCE ABUSE AND ADDICTION” (priority 2006, published 2007)
